US20090304821A1, “Pharmaceutical Combination” (Takeda Pharmaceutical Company Limited, priority 2006, published 2009)

These compounds were tested against T1, human CaR (Homo sapiens, UniProt P41180) (assay: GTPγS binding assay on human CaR-expressing CHO cell membrane). Conditions: 1 μM test compound, % of binding with 6 mM calcium only, compounds marked antagonist.
T1 construct: expressed in transfected cells; cDNA amplified from human kidney cDNA (TOYOBO); membrane fraction used
T1 sequence (P41180 20-1078): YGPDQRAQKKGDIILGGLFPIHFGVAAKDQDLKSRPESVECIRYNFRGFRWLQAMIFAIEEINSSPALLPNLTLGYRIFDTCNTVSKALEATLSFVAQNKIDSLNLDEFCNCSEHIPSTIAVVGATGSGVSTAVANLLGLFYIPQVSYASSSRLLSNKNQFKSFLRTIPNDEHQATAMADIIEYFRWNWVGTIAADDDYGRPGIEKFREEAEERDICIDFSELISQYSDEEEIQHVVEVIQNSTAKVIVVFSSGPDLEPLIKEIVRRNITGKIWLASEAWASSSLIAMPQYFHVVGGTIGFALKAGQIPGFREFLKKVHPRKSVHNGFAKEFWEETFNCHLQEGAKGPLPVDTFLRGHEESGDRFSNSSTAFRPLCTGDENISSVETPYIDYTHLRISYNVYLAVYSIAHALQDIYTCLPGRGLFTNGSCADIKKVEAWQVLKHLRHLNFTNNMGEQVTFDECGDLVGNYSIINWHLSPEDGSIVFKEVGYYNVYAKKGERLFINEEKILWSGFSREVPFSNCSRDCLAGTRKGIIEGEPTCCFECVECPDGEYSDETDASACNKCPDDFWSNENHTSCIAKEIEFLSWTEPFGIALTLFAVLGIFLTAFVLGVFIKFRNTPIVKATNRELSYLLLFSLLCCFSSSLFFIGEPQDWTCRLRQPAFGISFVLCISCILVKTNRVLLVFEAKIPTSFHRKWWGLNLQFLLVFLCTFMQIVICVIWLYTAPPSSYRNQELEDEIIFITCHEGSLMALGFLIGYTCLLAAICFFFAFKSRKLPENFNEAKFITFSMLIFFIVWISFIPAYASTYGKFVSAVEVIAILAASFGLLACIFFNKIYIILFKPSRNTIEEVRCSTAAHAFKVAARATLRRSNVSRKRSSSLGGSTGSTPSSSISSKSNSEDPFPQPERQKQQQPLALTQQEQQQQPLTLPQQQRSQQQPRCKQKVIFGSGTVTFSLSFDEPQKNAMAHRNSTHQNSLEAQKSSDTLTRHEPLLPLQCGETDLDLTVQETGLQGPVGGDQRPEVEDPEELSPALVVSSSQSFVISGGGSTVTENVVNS
Format: biochemical
Description: Preparation of Membrane Fraction is Described Bellow. The human CaR-expressing CHO cells were inoculated to a F500 flask in 1.8×10^5 cells/flask followed by cultivation for 2 days. The cells were scraped with 10 ml of Phosphate-Buffered Saline containing 0.02% EDTA. After centrifugation (2000 rpm, 10 min) of the cells, the cell pellet was resuspended into 12 ml of homogenate buffer solution (10 mM NaHCO3, 1 mM EDTA, 1× Protease inhibitor cocktail (pH 7.4)) and homogenized by Polytron™ (2000 rpm, 1 min). The cell debris was removed by centrifugation (2000 rpm, 10 min), and then the CaR-expressing cell membrane fraction was collected by ultracentrifugation (Beckman 70 Ti type rotor, 30000 rpm, 1 hour).
The GTPγS binding activity was measured as follows. Twenty μg of the CaR-expressing cell membrane was incubated with test compounds for 10 min. The assays were carried out at room temperature for an hour in a reaction mixture solution containing 20 mM HEPES (pH.7.4), 100 mM NaCl, 1 mM MgCl2, 167 μg/ml DTT, 5 μM guanosine 5′-diphosphate, 0.4 nM [^35S]-guanosine 5′-(γ-thio) triphosphate ([^35S]-GTPγS) and 6 mM CaCl2. The reaction mixture was filtered through a GF/C filter. After washing four times with 300 μl of Phosphate-Buffered Saline, the amount of [^35S]-GTPγS bound to the filter was measured using a Top-count scintillation counter.
Effects of test compounds on [^35S]-GTPγS binding were expressed in percentage terms. This was calculated from the equation [100×(t′−b)]/(t−b)]. Herein, t′, t and b are values of [^35S]-GTPγS binding (dpm), t′ is a value in the presence of 6 mM calcium and the test compound, t is a value in the presence of 6 mM calcium only and b is a value in the absence of both 6 mM calcium and the test compound.

SMILES | [^35S]-GTPγS binding (%)
Cc1ccc(C(OC2CCN(C(=O)c3cnn4c3NC(c3ccccc3)CC4C(F)(F)F)CC2)c2ccc(C)cc2)cc1 (stereo not shown) [Test Compound 4, 3-((4-(bis(4-methylphenyl)methoxy)-1-piperidinyl)carbonyl)-5-phenyl-7-(trifluoromethyl)-4,5,6,7-tetrahydropyrazolo[1,5-a]pyrimidine] | 10 (1 μM) %
CCC(CC)(NC(=O)c1cnn2c1NC(c1ccccc1)CC2(C)C)c1ccc(-c2ccsc2)cc1 (stereo not shown) [Test Compound 6, N-(1-ethyl-1-(4-(3-thienyl)phenyl)propyl)-7,7-dimethyl-5-phenyl-4,5,6,7-tetrahydropyrazolo[1,5-a]pyrimidine-3-carboxamide] | 0 (1 μM) %
CC1(C(F)(F)F)CC(c2ccccc2)Nc2c(C(=O)NC34CC5CC(CC(C5)C3)C4)cnn21 (stereo not shown) [Test Compound 5, N-(1-adamantyl)-7-methyl-5-phenyl-7-(trifluoromethyl)-4,5,6,7-tetrahydropyrazolo[1,5-a]pyrimidine-3-carboxamide] | 12 (1 μM) %
CCC(CC)(NC(=O)c1cnn2c1NC(c1ccccc1)CC2C(F)(F)F)c1ccc(C(F)(F)F)cc1 (stereo not shown) [Test Compound 3, N-(1-ethyl-1-(4-(trifluoromethyl)phenyl)propyl)-5-phenyl-7-(trifluoromethyl)-4,5,6,7-tetrahydropyrazolo[1,5-a]pyrimidine-3-carboxamide] | 0 (1 μM) %
COc1ccc(C(CNC(=O)c2cnn3c2NC(c2ccccc2)CC3C(F)(F)F)c2ccccc2)cc1 (stereo not shown) [Test Compound 1, N-(2-(4-methoxyphenyl)-2-phenylethyl)-5-phenyl-7-(trifluoromethyl)-4,5,6,7-tetrahydropyrazolo[1,5-a]pyrimidine-3-carboxamide] | 34 (1 μM) %
COc1ccc(C(NC(=O)c2cnn3c2NC(c2ccccc2)CC3C)c2ccc(OC)cc2)cc1 (stereo not shown) [Test Compound 2, N-(bis(4-methoxyphenyl)methyl)-7-methyl-5-phenyl-4,5,6,7-tetrahydropyrazolo[1,5-a]pyrimidine-3-carboxamide] | 0 (1 μM) %

Same assay, conditions: 10 μM test compound, % of binding with 6 mM calcium only, compound marked agonist

SMILES | [^35S]-GTPγS binding (%)
O=C(NCC(c1ccccc1)N1CCCC1)c1cnn2c1NC(c1ccccc1)CC2C(F)(F)F (stereo not shown) [Test Compound 7, 5-phenyl-N-(2-phenyl-2-(1-pyrrolidinyl)ethyl)-7-(trifluoromethyl)-4,5,6,7-tetrahydropyrazolo[1,5-a]pyrimidine-3-carboxamide] | 256 (10 μM) %
